Measurements from patent publication US6894068B2, “Substituted benzimidazoles as non-nucleoside inhibitors of reverse transcriptase” (The United States of America as represented by the …, priority 1997, dated 2005).
“And” between values parts separate entries of the source, which are not always exact repeats. Equal entries are not always repeated. Where two headings read alike, the source gives them in different places.

Columns and labels:
HIV-1 WT virus (NL4-3) = assay: microbe, parasite or virus in culture; type: cell-based; settings: for EC50 / EC50 (μM): Table 11, CEMSS/NL4-3, NRVC = no reduction in viral CPE; for EC50: read-out: EC50; for cytotoxicity and anti-viral effect, summary graph, result in words: FIGS. 10-12; for inhibitory potency against HIV-1 (CIC50), result in words: CEMSS cell culture, WT virus (NL4-3), relative to parent compounds 1 and 2
Description: Evaluation of these compounds for the inhibition of HIV-1 was determined as the fifty percent cell culture inhibitory concentration (CIC50) in CEMSS cell culture with WT virus (NL4-3).
In this Example, the antiviral and cellular toxicity of NNRTIs was investigated, using the cytopathic cell killing assay described by Yang (Yang et al., “Characteristics of a Group of Non-nucleoside Reverse Transcriptase Inhibitors with Structural Diversity and Potent Anti-Human Immunodeficiency Virus Activity,” Leukemia 9:S75-S85 [1995]). Briefly, in this method cells (e.g., the CEM-SS cell line, available from the NIAID AIDS Research and Reference Program [ARRRP]) were seeded at a density of 5×10^3 cells/well, into the wells of a 96-well microtiter plate. The cells were then infected with HIV virus (either mutant or WT), at a multiplicity of infection (MOI) previously determined to provide complete cell killing by 6 days of culture post-infection (e.g., MOI of 0.01-0.05). Each of the HIV isolates was pre-titered to induce equivalent levels of infection based on cell killing or virus production, prior to their use in these assays. A range of test compound concentrations was added to the wells in triplicate (e.g., serial half-log dilutions) to evaluate inhibition of HIV infection. Controls for each assay included drug controls (drug colorimetric control wells), drug cytotoxicity control wells (cells with drug), virus control wells (cells with virus), and cell viability controls (cells only). Positive control drugs (e.g. AZT and ddC) were also run in parallel.
After six days of incubation at 37° C., cell viability was determined spectrophotometrically at 450 nm for each well, using the metabolic reduction of XTT to a soluble colored formazan. (See, Gartner and Popovic, “Virus Isolation and Production, in Aldovini and Walker (eds.), Techniques in HIV Research, Stockton Press, NY, pp. […] [1991]; and Nara and Fischinger, “Quantitative Infectivity Assay for HIV-1 and HIV-2, ” Nature 332:469-470 [1988]).
The in vitro therapeutic index (TI50) was defined as the fold-difference between the EC50 and IC50. The results for the various compounds are included in FIGS. 8 and 19.

HIV-1 WT RT = HIV-1 WT RT (Human immunodeficiency virus type 1 group M subtype B, UniProt P03366); assay: biochemical; type: biochemical; settings: WT RT
[1] = Human immunodeficiency virus 1, NL43, CEM-SS

Row | melting point | Compound | other results
1 |  | N#Cc1cccc2c1nc(-c1c(F)cccc1F)n2Cc1c(F)cccc1F [Compound 60, 1-(2,6-difluorobenzyl)-2-(2,6-difluorophenyl)-4-cyanobenzimidazole] | EC50 (HIV-1 WT virus (NL4-3); [1]): 430 nM
2 | 186 to 188 °C | Cc1cccc2c1nc(-c1cccnc1)n2Cc1c(F)cccc1F | 
3 |  | O=C(c1c(F)cccc1F)n1c(-c2c(F)cccc2F)nc2ccccc21 [Compound 47, 1-(2,6-difluorobenzoyl)-2-(2,6-difluorophenyl)benzimidazole] | inhibition at 10 µM (HIV-1 WT RT; Table 2, 10 μM drug, rC-dG template primer, read-out: % inhibn (10 μM)): 8%; RT inhibition, result in words (HIV-1 WT RT): did not show appreciable RT inhibition activity
4 | 99 °C | Cc1nc2ccccc2n1Cc1c(F)cccc1F [Compound 35, 1-(2,6-difluorobenzyl)-2-methylbenzimidazole] | 
5 |  | CC(=O)N(C)Cc1cccc2c1nc(-c1c(F)cccc1F)n2Cc1c(F)cccc1F [Compound 73, 1-(2,6-Difluorobenzyl)-2-(2,6-difluorophenyl)-4-(N-acetyl-N-methyl)-aminomethylbenzimidazole] | EC50 (HIV-1 WT virus (NL4-3)): 580 nM
6 | 136 to 139 °C | COc1cccc2c1nc(C1CC1)n2Cc1c(F)cccc1F | 
7 | 168 to 169 °C | O=[N+]([O-])c1ccc2c(c1)nc(-c1c(F)cccc1F)n2Cc1c(F)cccc1F | 
8 |  | CC(=O)NCc1cccc2c1nc(-c1c(F)cccc1F)n2Cc1c(F)cccc1F [Compound 72] | EC50 (μM) (HIV-1 WT virus (NL4-3)): NRVC
9 |  | N#Cc1cccc2c1nc(-c1c(F)cccc1F)n2Cc1c(F)cccc1F [Compound 4007] | % inhibn (10 μM) (HIV-1 WT RT; Table 1, 10 μM drug, rC-dG template primer): 26%
10 |  | CC(=O)OCc1cccc2c1nc(-c1c(F)cccc1F)n2Cc1c(F)cccc1F [Compound 51, 1-(2,6-difluorobenzyl)-2-(2,6-difluorophenyl)-4-acetoxymethylbenzimidazole] | EC50 (HIV-1 WT virus (NL4-3); [1]): 59 nM
11 | 177 °C and 177 to 178 °C | Cc1cccc2nc(-c3c(F)cccc3F)n(Cc3c(F)cccc3F)c12 | 
12 | 153 to 154 °C | Cc1cc(C)c2nc(-c3c(F)cccc3F)n(Cc3c(F)cccc3F)c2c1 | 
13 | 121 to 123 °C | Cc1cccc2c1nc(-c1cccc3ccccc13)n2Cc1c(F)cccc1F [Compound 37, 1-(2,6-difluorobenzyl)-2-(1-naphthyl)-4-methylbenzimidazole] | 
14 | 147 to 149 °C | Cc1ccc2c(c1)nc(-c1c(F)cccc1F)n2Cc1c(F)cccc1F | 
15 | 136 °C and 136 to 137 °C | Fc1cccc(F)c1Cn1c(-c2c(F)cccc2F)nc2cc(Cl)ccc21 | 
16 | 175 to 176 °C | Cc1cccc2c1nc(-c1ccc3ccccc3c1)n2Cc1c(F)cccc1F | 
17 | 78 to 79 °C | CC(C)=CCn1c(-c2c(F)cccc2F)nc2c(C)cccc21 [(X = CH3) R = prenyl, 1-(3,3-dimethylallyl)-2-(2,6-difluorophenyl)-4-methylbenzimidazole] | 
18 | 131 to 132 °C | Cc1cccc2c1nc(-c1c(F)cccc1F)n2Cc1cccnc1 | 
19 | 109 °C | Fc1cccc(F)c1COCc1nc2ccccc2n1Cc1c(F)cccc1F [Compound 32, 1-(2,6-difluorobenzyl)-2-(2,6-difluorobenzyloxymethyl)benzimidazole] | 
20 | 172 to 173 °C | Cc1ccc2nc(-c3c(F)cccc3F)n(Cc3c(F)cccc3F)c2c1 | 
21 | 184 to 186 °C | COC(=O)c1cccc2c1nc(-c1c(F)cccc1F)n2Cc1c(F)cccc1F | 
22 | 152 to 153 °C | Fc1cccc(F)c1Cn1c(-c2c(F)cccc2F)nc2ccc(Cl)cc21 | 
23 |  | CC(C)(O)c1cccc2c1nc(-c1c(F)cccc1F)n2Cc1c(F)cccc1F [Compound 65, 1-(2,6-Difluorobenzyl)-2-(2,6-difluorophenyl)-4-benzimidazoyl-2-propanol] | EC50 (HIV-1 WT virus (NL4-3)): 6340 nM
24 | 176 to 177 °C | Cc1ccc2c(nc(-c3c(F)cccc3F)n2Cc2c(F)cccc2F)c1C | 
25 |  | OCc1cccc2c1nc(-c1c(F)cccc1F)n2Cc1c(F)cccc1F [Compound 67, 1-(2,6-Difluorobenzyl)-2-(2,6-difluorophenyl)-4-hydroxymethylbenzimidazole] | EC50 (HIV-1 WT virus (NL4-3); [1]): 23 nM
26 | 104 to 106 °C | O=S(=O)(c1ccccc1)n1c(-c2c(F)cccc2F)nc2ccccc21 | 
27 | 155 to 156 °C | Cc1cccc2c1nc(-c1c(F)cccc1F)n2Cc1c(F)c(F)c(F)c(F)c1F | 
28 | 171 to 172 °C | Cc1cccc2c1nc(-c1ccncc1)n2Cc1c(F)cccc1F | 
29 | 163 °C | Fc1cccc(F)c1Cn1c(-c2ccccc2)nc2ccccc21 | 

Row | Compound | melting point | other results
30 | Fc1cccc(F)c1Cn1c(-c2c(F)cccc2F)nc2c(CCl)cccc21 [Compound 69, 1-(2,6-difluorobenzyl)-2-(2,6-difluorophenyl)-4-chloromethylbenzimidazole] | 143 to 144 °C | EC50 (HIV-1 WT virus (NL4-3); [1]): 180 nM
31 | Cc1cccc2c1nc(C(C)C)n2Cc1c(F)cccc1F [Compound 34, 1-(2,6-difluorobenzyl)-2-isopropyl-4-methylbenzimidazole] | 151 to 153 °C | cytotoxicity and anti-viral effect, summary graph, result in words (HIV-1 WT virus (NL4-3)): effective therapeutic dose
32 | Fc1cccc(F)c1Cn1c(-c2c(F)cccc2F)nc2cc(Br)ccc21 [Compound 38, 1-(2,6-Difluorobenzyl)-2-(2,6-difluorophenyl)-5-bromobenzimidazole] | 155 to 156 °C | cytotoxicity and anti-viral effect, summary graph, result in words (HIV-1 WT virus (NL4-3)): inactive
33 | Oc1cccc2c1nc(-c1c(F)cccc1F)n2Cc1c(F)cccc1F [Compound 52, 1-(2,6-Difluorobenzyl)-2-(2,6-difluorophenyl)-4-hydroxyl-benzimidazole] | 257 to 259 °C | EC50 (HIV-1 WT virus (NL4-3); [1]): 650 nM
34 | C=C(C)c1cccc2c1nc(-c1c(F)cccc1F)n2Cc1c(F)cccc1F [Compound 66, 1-(2,6-Difluorobenzyl)-2-(2,6-difluorophenyl)-4-isopropenylbenzimidazole] | 156 to 158 °C | EC50 (HIV-1 WT virus (NL4-3); [1]): 1440 nM
35 | N=C(NO)c1cccc2c1nc(-c1c(F)cccc1F)n2Cc1c(F)cccc1F [Compound 61, N-hydroxy 1-(2,6-difluorobenzyl)-2-(2,6-difluorophenyl)benzimidazole-4-carboxamidine] | 214 to 216 °C and 213 to 216 °C | inhibitory potency against HIV-1 (CIC50), result in words (HIV-1 WT virus (NL4-3)): clearly detrimental to potency; EC50 (HIV-1 WT virus (NL4-3); [1]): 190 nM
36 | NC(=O)c1cccc2c1nc(-c1c(F)cccc1F)n2Cc1c(F)cccc1F [Compound 62, 1-(2,6-difluorobenzyl)-2-(2,6-difluorophenyl)benzimidazole-4-carboxylic acid amide] | 260 to 261 °C | inhibitory potency against HIV-1 (CIC50), result in words (HIV-1 WT virus (NL4-3)): clearly detrimental to potency; EC50 (HIV-1 WT virus (NL4-3); [1]): 4900 nM
37 | O=Cc1cccc2c1nc(-c1c(F)cccc1F)n2Cc1c(F)cccc1F [Compound 68, 1-(2,6-Difluorobenzyl)-2-(2,6-difluorophenyl)-benzimidazole-4-carbaldehyde] | 151 to 153 °C | EC50 (HIV-1 WT virus (NL4-3); [1]): 120 nM
38 | O=C(O)c1cccc2c1nc(-c1c(F)cccc1F)n2Cc1c(F)cccc1F [Compound 64, 1-(2,6-Difluorobenzyl)-2-(2,6-difluorophenyl)benzimidazole-4-carboxylate] | 179 to 180 °C and 178 to 180 °C | inhibitory potency against HIV-1 (CIC50), result in words (HIV-1 WT virus (NL4-3)): clearly detrimental to potency; EC50 (μM) (HIV-1 WT virus (NL4-3)): NRVC
